Measured values published in patent publication US6407265B2, “Tin polyoxaalkanecarboxylates and compositions containing them” (priority 1998, dated 2002).
Converted amounts (≈) assume the structure as drawn.

Legend:
MCF-7 (mammary cancer) = type: cell-based, human; settings: in vitro, MCF-7 mammary cancer cell line
Source text: (§1) The ID50 inhibition doses in ng/ml of the tested compounds are given in the table as well as those for some known reference compounds.

EVSA-T (mammary cancer) = type: cell-based, human; settings: in vitro, EVSA-T mammary cancer cell line
Source text: as §1

WiDr (colon carcinoma) = type: cell-based, human; settings: in vitro, WiDr colon carcinoma cell line
IGROV (ovarian cancer) = type: cell-based, human; settings: in vitro, IGROV ovarian cancer cell line
M19 MEL (melanoma) = type: cell-based, human; settings: in vitro, M19 MEL melanoma cell line
A 498 (renal cancer) = type: cell-based, human; settings: in vitro, A 498 renal cancer cell line
[1] = system: H226 (non small cell lung cancer); type: cell-based, human; settings: in vitro, H226 non small cell lung cancer cell line
[2] = Stability in the presence of water (117Sn NMR); type: physicochemical; settings: CD3CD2OD solution, increasing amounts of D2O added, resonance regularly slightly shifted
Method: The stability in the presence of water of four compounds, 6, 8, 9 and 12, was determined.

| Compound | ID50 inhibition dose MCF-7 (MCF-7 (mammary cancer)) [µg/mL] | ID50 inhibition dose EVSA-T (EVSA-T (mammary cancer)) [µg/mL] | ID50 inhibition dose WiDr (WiDr (colon carcinoma)) [µg/mL] | ID50 inhibition dose IGROV (IGROV (ovarian cancer)) [µg/mL] | ID50 inhibition dose M19 (M19 MEL (melanoma)) [µg/mL] | ID50 inhibition dose A498 (A 498 (renal cancer)) [µg/mL] | ID50 inhibition dose H226 [1] [µg/mL] | Stability in the presence of water [2] |
| --- | --- | --- | --- | --- | --- | --- | --- | --- |
| O=C([O][Sn]([c]1ccccc1)([c]1ccccc1)[c]1ccccc1)c1ccc2c(c1)OCCOCCOCCOCCO2 [Compound 5, triphenyltin 4,7,10,13,16-pentaoxadicyclo[13.4.0]cosa-1,3 (17),18-triene-1-carboxylate] | <0.003 | <0.003 | <0.003 | <0.003 | <0.003 | <0.003 | <0.003 | – |
| CCC[CH2][Sn]([CH2]CCC)([CH2]CCC)[O]C(=O)c1ccc2c(c1)OCCOCCOCCOCCO2 [Compound 6, tri-n-butyltin 4,7,10,13,16-pentaoxadicyclo[13.4.0]cosa-1,3 (17),18-triene-1-carboxylate] | <0.003 | <0.003 | <0.003 | <0.003 | <0.003 | <0.003 | <0.003 | single resonance |
| N.N.[Cl][Pt][Cl] [cisplatin, reference compound] | 0.699 | 0.422 | 0.967 | 0.169 | 0.558 | 2.253 | 3.269 | – |
| bis{di-n-butyl-[4,7,10,13,16,19-hexaoxadicyclo[16.4.0]dicosa-1,3(20),21-triene-1-carboxylato]tin}oxide [Compound 4] | 0.036 | 0.046 | 0.239 | 0.082 | 0.068 | 0.126 | 0.073 | – |
| bis[di-n-butyl(3,6,9-trioxadecanoato)tin]oxide [Compound 15] | <0.003 | <0.003 | 0.003 | <0.003 | <0.003 | <0.003 | <0.003 | – |
| CCC[CH2][Sn]([CH2]CCC)([O]C(=O)COCCOC)[O]C(=O)COCCOC [Compound 10, di-n-butyltin bis(3,6-diheptanoate)] | 0.06 | 0.062 | 0.379 | 0.128 | 0.115 | 0.134 | 0.161 | – |
| O=c1[nH]cc(F)c(=O)[nH]1 [5-fluoro-uracil, reference compound] | 0.75 (≈ 5.77 µM) | 0.475 (≈ 3.65 µM) | 0.225 (≈ 1.73 µM) | 0.297 (≈ 2.28 µM) | 0.442 (≈ 3.4 µM) | 0.143 (≈ 1.1 µM) | 0.34 (≈ 2.61 µM) | – |
| CCC[CH2][Sn+2][CH2]CCC.O=C([O-])c1ccc2c(c1)OCCOCCOCCOCCOCCO2.O=C([O-])c1ccc2c(c1)OCCOCCOCCOCCOCCO2 [Compound 3] | 0.155 | 0.128 | 0.781 | 0.26 | 0.219 | 0.282 | 0.281 | – |
| CCC[CH2][Sn]([CH2]CCC)([CH2]CCC)[O]C(=O)c1ccc2c(c1)OCCOCCOCCOCCOCCO2 [Compound 2, tri-n-butyltin 4,7,10,13,16,19-hexaoxadicyclo[16.4.0]dicosa-1,3(20),21-triene-1-carboxylate] | 0.035 | 0.006 | 0.011 | 0.03 | 0.07 | 0.097 | 0.1 | – |
| O=C([O][Sn]([c]1ccccc1)([c]1ccccc1)[c]1ccccc1)c1ccc2c(c1)OCCOCCOCCOCCOCCO2 [Compound 1, triphenyltin 4,7,10,13,16,19-hexaoxadicyclo[16.4.0]dicosa-1,3 (20),21-triene-1-carboxylate] | 0.015 | 0.012 | 0.013 | 0.03 | 0.016 | 0.043 | 0.037 | – |
| CN(Cc1cnc2nc(N)nc(N)c2n1)c1ccc(C(=O)N[C@@H](CCC(=O)O)C(=O)O)cc1 [methotrexate, reference compound] | 0.018 (≈ 0.0396 µM) | 0.005 (≈ 0.011 µM) | <0.003 | 0.007 (≈ 0.0154 µM) | 0.023 (≈ 0.0506 µM) | 0.037 (≈ 0.0814 µM) | 2.287 (≈ 5.03 µM) | – |
| bis[di-n-butyl(3,6-dioxaheptanoato)tin]oxide [Compound 11] | <0.003 | <0.003 | 0.006 | <0.003 | <0.003 | <0.003 | 0.005 | – |
| di-n-butyltin bis (3,6,9-trioxadecanoate) [Compound 14] | 0.086 | 0.066 | 0.495 | 0.178 | 0.167 | 0.145 | 0.28 | – |
| COc1cccc2c1C(=O)c1c(O)c3c(c(O)c1C2=O)C[C@@](O)(C(=O)CO)C[C@@H]3O[C@H]1C[C@H](N)[C@H](O)[C@H](C)O1 [doxorubicin, reference compound] | 0.01 (≈ 0.0184 µM) | 0.008 (≈ 0.0147 µM) | 0.011 (≈ 0.0202 µM) | 0.06 (≈ 0.11 µM) | 0.016 (≈ 0.0294 µM) | 0.09 (≈ 0.166 µM) | 0.199 (≈ 0.366 µM) | – |
| CCC[CH2][Sn]([CH2]CCC)([CH2]CCC)[O]C(=O)COCCOC [Compound 9, tri-n-butyltin 3,6-diheptanoate] | 0.032 | 0.04 | 0.082 | 0.084 | 0.09 | 0.153 | 0.061 | single resonance |
| COc1cc([C@@H]2c3cc4c(cc3[C@@H](O[C@@H]3O[C@@H]5CO[C@@H](C)O[C@H]5[C@H](O)[C@H]3O)[C@H]3COC(=O)[C@H]23)OCO4)cc(OC)c1O [etoposide, reference compound] | – | – | 0.15 (≈ 0.255 µM) | 0.58 (≈ 0.985 µM) | 0.505 (≈ 0.858 µM) | 1.314 (≈ 2.23 µM) | 3.934 (≈ 6.68 µM) | – |
| triphenyltin 3,6,9-trioxadecanoate [Compound 12] | 0.009 | 0.009 | 0.019 | 0.033 | 0.024 | 0.021 | 0.025 | single resonance |
| COCCOCC(=O)[O][Sn]([c]1ccccc1)([c]1ccccc1)[c]1ccccc1 [Compound 8, triphenyltin 3,6-diheptanoate] | 0.013 | 0.012 | 0.034 | 0.037 | 0.031 | 0.032 | 0.033 | single resonance |
| CCC[CH2][Sn]([CH2]CCC)([O]C(=O)c1ccc2c(c1)OCCOCCOCCOCCO2)[O]C(=O)c1ccc2c(c1)OCCOCCOCCOCCO2 [Compound 7, di-n-butyltin bis[4,7,10,13,16-pentaoxadicyclo[13.4.0]cosa-1,3(17),18-triene-1-carboxylate]] | 0.273 | 0.237 | 0.332 | 0.321 | 0.286 | 0.049 | 0.854 | – |
